Columns and labels:
Pim-1(h) = molecular target: T1, Pim-1(h) (Homo sapiens, UniProt P11309); assay: Kinase selectivity panel: Pim-1; type: biochemical
T1 construct: purchased Eurofins (Millipore) KinaseProfiler Diversity Panel
Procedure: (§1) To confirm the anti-inflammatory effect was caused by RIPK2 inhibition, compound 14 was subjected to kinase selectivity evaluation (Figure 4). Kinase selectivity profile of compound 14 as shown by the diversity kinase Panel screen against 70 kinases assayed at 1 µM. Among all tested 70 kinases, only five were inhibited over 90% at 1 µM including Fyn, Lyn, BTK, Abl and RIPK2. Three kinases including KDR, CDK9 and LOK were inhibited 50–90% at 1 µM.

PI3 Kinase (p120g)(h) = molecular target: T2, PI3 Kinase (p120g)(h) (Homo sapiens, UniProt P48736); assay: Kinase selectivity panel: PI3 Kinase (p120g); type: biochemical; settings: 1 µM
T2 construct: purchased Eurofins (Millipore) KinaseProfiler Diversity Panel
T2 sequence (P48736 whole entry): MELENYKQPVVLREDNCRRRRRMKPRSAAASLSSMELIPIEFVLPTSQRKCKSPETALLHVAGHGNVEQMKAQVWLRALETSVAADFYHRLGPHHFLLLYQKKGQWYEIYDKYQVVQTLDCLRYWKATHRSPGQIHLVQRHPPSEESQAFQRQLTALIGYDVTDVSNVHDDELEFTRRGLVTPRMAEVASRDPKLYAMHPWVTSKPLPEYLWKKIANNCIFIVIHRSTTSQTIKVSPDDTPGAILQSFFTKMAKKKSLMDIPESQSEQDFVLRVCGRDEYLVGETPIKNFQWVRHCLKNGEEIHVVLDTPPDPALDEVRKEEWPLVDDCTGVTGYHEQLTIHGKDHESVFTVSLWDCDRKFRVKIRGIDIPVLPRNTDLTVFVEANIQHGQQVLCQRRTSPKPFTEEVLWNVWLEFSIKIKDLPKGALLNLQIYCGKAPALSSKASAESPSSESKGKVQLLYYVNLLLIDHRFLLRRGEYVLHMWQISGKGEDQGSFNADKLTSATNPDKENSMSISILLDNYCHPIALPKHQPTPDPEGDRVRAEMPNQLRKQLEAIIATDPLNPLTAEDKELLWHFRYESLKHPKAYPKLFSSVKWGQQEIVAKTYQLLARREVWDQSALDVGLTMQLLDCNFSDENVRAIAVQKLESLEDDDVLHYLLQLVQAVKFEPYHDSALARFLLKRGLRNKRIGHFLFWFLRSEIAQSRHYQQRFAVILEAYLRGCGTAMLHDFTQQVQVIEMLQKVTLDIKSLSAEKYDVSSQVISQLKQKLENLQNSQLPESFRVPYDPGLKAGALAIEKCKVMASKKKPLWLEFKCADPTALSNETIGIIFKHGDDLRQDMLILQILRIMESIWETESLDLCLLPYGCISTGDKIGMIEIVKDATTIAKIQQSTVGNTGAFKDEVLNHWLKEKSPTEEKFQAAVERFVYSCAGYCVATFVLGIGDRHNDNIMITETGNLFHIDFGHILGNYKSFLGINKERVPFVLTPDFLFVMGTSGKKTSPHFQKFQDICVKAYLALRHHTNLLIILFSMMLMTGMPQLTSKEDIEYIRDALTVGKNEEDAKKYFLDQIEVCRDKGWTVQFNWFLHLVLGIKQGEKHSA
Procedure: as §1

MAPKAP-K2(h) = molecular target: T3, MAPKAP-K2(h) (Homo sapiens, UniProt P49137); assay: Kinase selectivity panel: MAPKAP-K2; type: biochemical; settings: 1 µM
T3 construct: purchased Eurofins (Millipore) KinaseProfiler Diversity Panel
Procedure: as §1

SAPK2a(h) = molecular target: T4, SAPK2a(h) (Homo sapiens, UniProt Q16539); assay: Kinase selectivity panel: SAPK2a; type: biochemical
T4 construct: purchased Eurofins (Millipore) KinaseProfiler Diversity Panel
T4 sequence (Q16539 whole entry): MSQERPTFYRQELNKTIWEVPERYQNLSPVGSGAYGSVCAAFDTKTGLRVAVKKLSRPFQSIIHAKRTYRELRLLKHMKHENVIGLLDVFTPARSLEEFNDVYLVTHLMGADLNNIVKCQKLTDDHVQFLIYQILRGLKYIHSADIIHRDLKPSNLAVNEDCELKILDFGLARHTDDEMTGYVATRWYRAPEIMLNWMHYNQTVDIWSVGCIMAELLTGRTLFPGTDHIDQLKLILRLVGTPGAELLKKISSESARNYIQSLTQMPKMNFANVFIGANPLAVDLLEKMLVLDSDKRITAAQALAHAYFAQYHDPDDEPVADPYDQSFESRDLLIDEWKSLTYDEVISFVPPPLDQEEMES
Procedure: as §1

BTK(R28H)(h) = molecular target: T5, BTK(R28H)(h) (Homo sapiens, UniProt Q06187, R28H); assay: Kinase selectivity panel: BTK(R28H); type: biochemical; settings: 1 µM
T5 construct: purchased Eurofins (Millipore) KinaseProfiler Diversity Panel
Procedure: as §1

[1] = molecular target: T6, PI3 Kinase (p110a/p85a)(h) (Homo sapiens, UniProt P42336); assay: Kinase selectivity panel: PI3 Kinase (p110a/p85a); type: biochemical; settings: 1 µM
T6 construct: purchased Eurofins (Millipore) KinaseProfiler Diversity Panel
Procedure: as §1

TYK2(h) = molecular target: T7, TYK2(h) (Homo sapiens, UniProt P29597); assay: Kinase selectivity panel: TYK2; type: biochemical; settings: 1 µM
T7 construct: purchased Eurofins (Millipore) KinaseProfiler Diversity Panel
Procedure: as §1

LOK(h) = molecular target: T8, LOK(h) (Homo sapiens, UniProt O94804); assay: Kinase selectivity panel: LOK; type: biochemical
T8 construct: purchased Eurofins (Millipore) KinaseProfiler Diversity Panel
T8 sequence (O94804 whole entry): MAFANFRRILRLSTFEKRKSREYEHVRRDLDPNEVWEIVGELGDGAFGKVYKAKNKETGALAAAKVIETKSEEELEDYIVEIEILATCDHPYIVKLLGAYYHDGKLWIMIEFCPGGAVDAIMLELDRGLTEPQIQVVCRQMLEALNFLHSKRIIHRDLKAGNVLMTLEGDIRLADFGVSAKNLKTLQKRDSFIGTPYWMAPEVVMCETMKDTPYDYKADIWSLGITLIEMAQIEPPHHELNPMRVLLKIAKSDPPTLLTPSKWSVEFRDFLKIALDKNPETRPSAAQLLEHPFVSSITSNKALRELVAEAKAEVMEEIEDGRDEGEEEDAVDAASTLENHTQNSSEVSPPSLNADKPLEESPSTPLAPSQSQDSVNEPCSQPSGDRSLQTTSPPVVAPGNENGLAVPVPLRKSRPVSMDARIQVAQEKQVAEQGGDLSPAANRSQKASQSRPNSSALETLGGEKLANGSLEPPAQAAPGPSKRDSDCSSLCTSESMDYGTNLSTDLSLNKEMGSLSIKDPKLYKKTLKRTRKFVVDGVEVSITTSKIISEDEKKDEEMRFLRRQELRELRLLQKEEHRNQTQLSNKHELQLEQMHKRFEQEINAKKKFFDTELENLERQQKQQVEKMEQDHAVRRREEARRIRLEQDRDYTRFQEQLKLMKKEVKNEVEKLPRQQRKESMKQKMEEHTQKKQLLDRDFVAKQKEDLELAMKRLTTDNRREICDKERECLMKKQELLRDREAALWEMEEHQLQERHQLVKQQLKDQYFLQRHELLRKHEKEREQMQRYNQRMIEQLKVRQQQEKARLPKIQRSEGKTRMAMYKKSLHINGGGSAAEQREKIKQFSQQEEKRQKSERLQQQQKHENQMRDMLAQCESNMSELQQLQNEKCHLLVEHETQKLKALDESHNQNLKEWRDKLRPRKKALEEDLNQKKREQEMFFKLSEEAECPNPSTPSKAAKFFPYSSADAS
Procedure: as §1

Mnk2(h) = molecular target: T9, Mnk2(h) (Homo sapiens, UniProt Q9HBH9); assay: Kinase selectivity panel: Mnk2; type: biochemical
T9 construct: purchased Eurofins (Millipore) KinaseProfiler Diversity Panel
Procedure: as §1

[2] = molecular target: T10, PI3 Kinase (p110d/p85a)(h) (Homo sapiens, UniProt O00329); assay: Kinase selectivity panel: PI3 Kinase (p110d/p85a); type: biochemical; settings: 1 µM
T10 construct: purchased Eurofins (Millipore) KinaseProfiler Diversity Panel
Procedure: as §1

IKKα(h) = molecular target: T11, IKKα(h) (Homo sapiens, UniProt O15111); assay: Kinase selectivity panel: IKKα; type: biochemical
T11 construct: purchased Eurofins (Millipore) KinaseProfiler Diversity Panel
Procedure: as §1

Rsk1(h) = molecular target: T12, Rsk1(h) (Homo sapiens, UniProt Q15418); assay: Kinase selectivity panel: Rsk1; type: biochemical; settings: 1 µM
T12 construct: purchased Eurofins (Millipore) KinaseProfiler Diversity Panel
Procedure: as §1

CDK1/cyclinB(h) = molecular target: T13, CDK1/cyclinB(h) (Homo sapiens, UniProt P06493); assay: Kinase selectivity panel: CDK1/cyclinB; type: biochemical
T13 construct: purchased Eurofins (Millipore) KinaseProfiler Diversity Panel
Procedure: as §1

Rse(h) = molecular target: T14, Rse(h) (Homo sapiens, UniProt Q06418); assay: Kinase selectivity panel: Rse; type: biochemical; settings: 1 µM
T14 construct: purchased Eurofins (Millipore) KinaseProfiler Diversity Panel
Procedure: as §1

ROCK-I(h) = molecular target: T15, ROCK-I(h) (Homo sapiens, UniProt Q13464); assay: Kinase selectivity panel: ROCK-I; type: biochemical; settings: 1 µM
T15 construct: purchased Eurofins (Millipore) KinaseProfiler Diversity Panel
T15 sequence (Q13464 whole entry): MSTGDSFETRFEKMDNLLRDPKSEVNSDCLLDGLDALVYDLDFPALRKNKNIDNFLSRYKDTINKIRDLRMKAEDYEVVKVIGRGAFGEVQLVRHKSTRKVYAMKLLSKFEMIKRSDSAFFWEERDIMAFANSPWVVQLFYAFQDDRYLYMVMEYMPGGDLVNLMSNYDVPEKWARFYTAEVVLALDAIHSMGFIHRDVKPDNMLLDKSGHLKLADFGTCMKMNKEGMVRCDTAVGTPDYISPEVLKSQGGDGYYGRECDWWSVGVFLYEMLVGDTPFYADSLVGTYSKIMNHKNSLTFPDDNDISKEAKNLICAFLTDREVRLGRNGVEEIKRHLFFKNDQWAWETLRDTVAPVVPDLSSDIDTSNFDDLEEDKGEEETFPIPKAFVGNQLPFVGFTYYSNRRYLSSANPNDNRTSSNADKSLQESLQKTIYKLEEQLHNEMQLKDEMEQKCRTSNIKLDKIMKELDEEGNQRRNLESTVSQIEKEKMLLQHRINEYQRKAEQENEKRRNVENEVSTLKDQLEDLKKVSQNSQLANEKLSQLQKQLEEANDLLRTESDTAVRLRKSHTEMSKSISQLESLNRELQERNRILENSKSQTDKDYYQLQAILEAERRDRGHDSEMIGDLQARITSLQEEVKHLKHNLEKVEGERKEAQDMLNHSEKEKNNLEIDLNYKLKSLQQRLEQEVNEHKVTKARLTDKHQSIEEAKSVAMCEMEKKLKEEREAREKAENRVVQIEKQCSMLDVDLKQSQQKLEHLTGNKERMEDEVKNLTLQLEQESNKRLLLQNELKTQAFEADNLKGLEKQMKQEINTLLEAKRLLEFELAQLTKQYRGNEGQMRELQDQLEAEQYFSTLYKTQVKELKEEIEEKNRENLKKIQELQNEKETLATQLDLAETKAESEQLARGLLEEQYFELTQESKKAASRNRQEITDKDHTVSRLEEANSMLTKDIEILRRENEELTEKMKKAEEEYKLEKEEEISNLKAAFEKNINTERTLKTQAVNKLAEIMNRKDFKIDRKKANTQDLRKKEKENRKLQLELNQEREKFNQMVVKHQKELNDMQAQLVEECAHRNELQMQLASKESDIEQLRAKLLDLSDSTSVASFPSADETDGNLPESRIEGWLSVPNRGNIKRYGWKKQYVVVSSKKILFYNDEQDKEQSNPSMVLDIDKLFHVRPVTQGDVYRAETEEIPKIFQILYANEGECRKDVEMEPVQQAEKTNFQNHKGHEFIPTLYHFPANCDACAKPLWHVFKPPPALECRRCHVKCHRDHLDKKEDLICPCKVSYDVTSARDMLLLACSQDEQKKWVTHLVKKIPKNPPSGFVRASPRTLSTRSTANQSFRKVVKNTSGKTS
Procedure: as §1

mTOR(h) = molecular target: T16, mTOR(h) (Homo sapiens, UniProt P42345); assay: Kinase selectivity panel: mTOR; type: biochemical
T16 construct: purchased Eurofins (Millipore) KinaseProfiler Diversity Panel
Procedure: as §1

Lyn(h) = molecular target: T17, Lyn(h) (Homo sapiens, UniProt P07948); assay: Kinase selectivity panel: Lyn; type: biochemical
T17 construct: purchased Eurofins (Millipore) KinaseProfiler Diversity Panel
T17 sequence (P07948 whole entry): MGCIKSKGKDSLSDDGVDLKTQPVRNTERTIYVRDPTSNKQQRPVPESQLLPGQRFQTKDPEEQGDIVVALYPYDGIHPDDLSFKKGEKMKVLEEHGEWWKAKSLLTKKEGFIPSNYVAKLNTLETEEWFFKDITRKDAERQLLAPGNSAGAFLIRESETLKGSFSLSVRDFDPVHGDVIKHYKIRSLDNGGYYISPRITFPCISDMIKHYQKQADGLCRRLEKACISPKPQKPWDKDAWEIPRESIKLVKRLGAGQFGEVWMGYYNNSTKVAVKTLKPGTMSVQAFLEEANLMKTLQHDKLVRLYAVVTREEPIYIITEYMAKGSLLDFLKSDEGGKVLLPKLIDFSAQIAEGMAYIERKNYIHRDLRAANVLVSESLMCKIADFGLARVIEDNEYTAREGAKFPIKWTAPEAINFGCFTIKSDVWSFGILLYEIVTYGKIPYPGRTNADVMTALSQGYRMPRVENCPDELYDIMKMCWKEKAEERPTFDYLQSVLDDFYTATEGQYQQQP
Procedure: as §1

PKA(h) = molecular target: T18, PKA(h) (Homo sapiens, UniProt P17612); assay: Kinase selectivity panel: PKA; type: biochemical; settings: 1 µM
T18 construct: purchased Eurofins (Millipore) KinaseProfiler Diversity Panel
Procedure: as §1

CDK2/cyclinA(h) = molecular target: T19, CDK2/cyclinA(h) (Homo sapiens, UniProt P24941); assay: Kinase selectivity panel: CDK2/cyclinA; type: biochemical
T19 construct: purchased Eurofins (Millipore) KinaseProfiler Diversity Panel
Procedure: as §1

JAK1(h) = molecular target: T20, JAK1(h) (Homo sapiens, UniProt P23458); assay: Kinase selectivity panel: JAK1; type: biochemical
T20 construct: purchased Eurofins (Millipore) KinaseProfiler Diversity Panel
Procedure: as §1

EphA5(h) = molecular target: T21, EphA5(h) (Homo sapiens, UniProt P54756); assay: Kinase selectivity panel: EphA5; type: biochemical; settings: 1 µM
T21 construct: purchased Eurofins (Millipore) KinaseProfiler Diversity Panel
Procedure: as §1

CHK1(h) = molecular target: T22, CHK1(h) (Homo sapiens, UniProt O14757); assay: Kinase selectivity panel: CHK1; type: biochemical
T22 construct: purchased Eurofins (Millipore) KinaseProfiler Diversity Panel
Procedure: as §1

[3] = tested on: MDP-induced TNF-α secretion in Raw264.7; assay: TNF-α secretion in MDP-induced Raw264.7 (ELISA); type: cell-based, mouse; settings: Raw264.7, compounds 1 h then L18-MDP 20 µg/mL 24 h, series concentration
Procedure: Raw 264.7 was cultured in DMEM containing 10% (w/v) foetal bovine serum (FBS). Cell were seeded at a density of 1 × 10^5 cells/well in a 48 well plate overnight, then cells were treated with different concentrations of compounds for1h, following by stimulated with L18-MDP (20 µg/mL, Invivogen) for 24 h. The Cell supernatants were harvested for enzyme-linked immunosorbent assay (ELISA).
TNFα commercial ELISA kits (DAKEWE) were used to detect TNFα in cell culture supernatants according to the manufacturer’s instructions. The concentration of cytokines was determined using multiwell spectrophotometer (SpetraMAX PLUS, Molecular Devices).

Plk3(h) = molecular target: T23, Plk3(h) (Homo sapiens, UniProt Q9H4B4); assay: Kinase selectivity panel: Plk3; type: biochemical; settings: 1 µM
T23 construct: purchased Eurofins (Millipore) KinaseProfiler Diversity Panel
Procedure: as §1

PDGFRβ(h) = molecular target: T24, PDGFRβ(h) (Homo sapiens, UniProt P09619); assay: Kinase selectivity panel: PDGFRβ; type: biochemical
T24 construct: purchased Eurofins (Millipore) KinaseProfiler Diversity Panel
Procedure: as §1

[4] = Human liver microsome stability; type: in vitro ADME; settings: human liver microsomes
IGF-1R(h) = molecular target: T25, IGF-1R(h) (Homo sapiens, UniProt P08069); assay: Kinase selectivity panel: IGF-1R; type: biochemical; settings: 1 µM
T25 construct: purchased Eurofins (Millipore) KinaseProfiler Diversity Panel
Procedure: as §1

TBK1(h) = molecular target: T26, TBK1(h) (Homo sapiens, UniProt Q9UHD2); assay: Kinase selectivity panel: TBK1; type: biochemical
T26 construct: purchased Eurofins (Millipore) KinaseProfiler Diversity Panel
Procedure: as §1

EphB4(h) = molecular target: T27, EphB4(h) (Homo sapiens, UniProt P54760); assay: Kinase selectivity panel: EphB4; type: biochemical
T27 construct: purchased Eurofins (Millipore) KinaseProfiler Diversity Panel
Procedure: as §1

RIPK2(h) = molecular target: T28, RIPK2(h) (Homo sapiens, UniProt O43353); assay: Kinase selectivity panel: RIPK2; type: biochemical
T28 construct: purchased Eurofins (Millipore) KinaseProfiler Diversity Panel
T28 sequence (O43353 whole entry): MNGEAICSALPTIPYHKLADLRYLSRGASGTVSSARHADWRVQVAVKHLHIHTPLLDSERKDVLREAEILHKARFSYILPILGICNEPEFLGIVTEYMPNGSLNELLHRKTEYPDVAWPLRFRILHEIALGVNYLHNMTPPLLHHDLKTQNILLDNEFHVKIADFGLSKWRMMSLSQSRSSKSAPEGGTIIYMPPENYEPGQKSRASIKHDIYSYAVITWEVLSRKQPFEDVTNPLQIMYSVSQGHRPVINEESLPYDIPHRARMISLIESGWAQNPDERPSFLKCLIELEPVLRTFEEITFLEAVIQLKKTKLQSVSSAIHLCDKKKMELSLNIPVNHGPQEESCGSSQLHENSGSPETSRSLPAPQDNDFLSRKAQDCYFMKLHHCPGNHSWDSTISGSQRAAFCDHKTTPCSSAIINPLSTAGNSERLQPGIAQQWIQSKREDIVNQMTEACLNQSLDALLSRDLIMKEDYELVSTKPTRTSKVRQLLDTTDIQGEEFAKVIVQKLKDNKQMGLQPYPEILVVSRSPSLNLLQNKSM
Procedure: as §1

MLK1(h) = molecular target: T29, MLK1(h) (Homo sapiens, UniProt P80192); assay: Kinase selectivity panel: MLK1; type: biochemical
T29 construct: purchased Eurofins (Millipore) KinaseProfiler Diversity Panel
Procedure: as §1

IKKε(h) = molecular target: T30, IKKε(h) (Homo sapiens, UniProt Q14164); assay: Kinase selectivity panel: IKKε; type: biochemical
T30 construct: purchased Eurofins (Millipore) KinaseProfiler Diversity Panel
Procedure: as §1

RIPK2 = molecular target: T31, RIPK2 (Homo sapiens, UniProt O43353); assay: RIPK2 kinase inhibition assay (ADP-Glo); type: biochemical; settings: mean ± SD from two separate experiments
T31 construct: purchased Promega
T31 sequence (O43353 whole entry): as above
Procedure: RIPK2 kinase activity was analysed using the ADP-Glo™ Assay Kit (RIPK2 Kinase Enzyme System, Promega, USA). Reactions were performed according to the instructions. Specific signal was calculated by subtracting values in the wells without protein and inhibitor from the values in the test wells.

EGFR(h) = molecular target: T32, EGFR(h) (Homo sapiens, UniProt P00533); assay: Kinase selectivity panel: EGFR; type: biochemical; parameters: unit not given here
T32 construct: purchased Eurofins (Millipore) KinaseProfiler Diversity Panel
Procedure: as §1

c1cc(-c2ccc3nccc(Nc4ccc5scnc5c4)c3c2)ccn1 [Compound 14, N-(6-(pyridin-4-yl)quinolin-4-yl)benzo[d]thiazol-5-amine]
remaining kinase activity (% of control) with compound 14 at 1 µM (Pim-1(h)): 78
Remaining kinase activity (% of control) (PI3 Kinase (p120g)(h)): 79
percent remaining MAPKAP-K2 activity (MAPKAP-K2(h)): 95
% remaining SAPK2a activity with compound 14 at 1 µM (SAPK2a(h)): 54
percent remaining kinase activity (BTK(R28H)(h)): 63
percent remaining kinase activity [1]: 81
kinase activity remaining (% of control) (TYK2(h)): 108
LOK remaining activity (% of control) (LOK(h); 1 µM): 44
inhibition at 1 µM (LOK(h); at 1 µM): 50 to 90%
Mnk2 remaining activity (% of control) with compound 14 at 1 µM (Mnk2(h)): 68
Remaining kinase activity (% of control) [2]: 54
Remaining IKKα activity at 1 µM (% of control) (IKKα(h)): 104
Rsk1 kinase activity remaining (% of control) (Rsk1(h)): 98
CDK1/cyclinB remaining activity (% of control) with compound 14 at 1 µM (CDK1/cyclinB(h)): 90
Remaining kinase activity (% of control) (Rse(h)): 121
Remaining kinase activity (% of control) (ROCK-I(h)): 70
% remaining mTOR activity with compound 14 at 1 µM (mTOR(h)): 106
Remaining Lyn kinase activity (% of control) (Lyn(h); 1 µM): 3
inhibition at 1 µM (Lyn(h); at 1 µM): > 90%
Remaining kinase activity (% of control) (PKA(h)): 117
CDK2/cyclinA remaining activity (%) with compound 14 at 1 µM (CDK2/cyclinA(h)): 78
JAK1 remaining kinase activity with compound 14 at 1 µM (% of control) (JAK1(h)): 105
Remaining kinase activity (% of control) (EphA5(h)): 96
CHK1 remaining activity (% of control) at 1 µM (CHK1(h)): 100
inhibition of MDP-induced TNF-α secretion [3]: strong inhibitory activity on MDP-induced TNF-α secretion with a dose-dependent manner
remaining Plk3 kinase activity (% of control) (Plk3(h)): 86
Remaining kinase activity at 1 µM (% of control) (PDGFRβ(h)): 64
CL [4]: 9.64 mL/min/kg
half-life [4]: 96.3 min
remaining IGF-1R activity (% of control) (IGF-1R(h)): 109
TBK1 remaining activity (%) with compound 14 at 1 µM (TBK1(h)): 97
EphB4 remaining activity (%) with compound 14 at 1 µM (EphB4(h)): 96
RIPK2 remaining activity (% of control) (RIPK2(h); 1 µM): 3
inhibition at 1 µM (RIPK2(h); at 1 µM): > 90%
Remaining MLK1 activity (%) with compound 14 at 1 µM (MLK1(h)): 89
Remaining IKKε activity at 1 µM (% of control) (IKKε(h)): 106
IC50 (RIPK2): 5.1 ± 1.6 nM
EGFR(h), 14 @ 1 µM (EGFR(h)): 104

Reference: publication PMC9683047, “Design, synthesis and biological evaluation of 4-aminoquinoline derivatives as receptor-interacting protein kinase 2 (RIPK2) inhibitors” (Journal of Enzyme Inhibition and Medicinal Chemistry, 2022)
